Experimental findings from US11098045B2, “Haloallylamine indole and azaindole derivative inhibitors of lysyl oxidases and uses thereof” (PHARMAXIS LTD., priority 2016, dated 2021) are described below.

Counter-ions that a name gives are not always drawn.

Assay [1] concerns Fibroblasts from confirmed cases of IPF. Kind of assay: In vitro fibroblastic foci model of IPF, collagen cross-link formation. Type of assay: cell-based. The settings on record: six weeks culture with TGF-β1; FIGS. 7a and 7b. The text has this:
Reduction of Collagen Cross-Link Formation in an In Vitro Fibroblastic Foci Model of IPF
The lung tissue of patients with idiopathic pulmonary fibrosis (IPF) is characterised by dense collections of myofibroblasts and extracellular matrix (ECM) termed ‘fibroblastic foci’. Using a novel in vitro model of fibroblastic foci (Jones et al., AJRCCM 191; 2015:A4912) the formation of lysyl oxidase (LOX) mediated collagen cross-links and the effects of the non-selective LOX inhibitor β-aminopropionitrile (BAPN) as well lysyl oxidase like-2 (LOXL2)-selective inhibitors were investigated.
Cultures of primary fibroblasts were grown out from clinical diagnostic biopsies of fibrotic lung and stored in liquid nitrogen. […]
To quantify collagen cross-links (Robins Biochem Soc Trans 2007; 35(5): 849-852; Saito et al Anal. Biochem. 1997; 253: 26-32; Sims, Avery & Bailey Methods in Molecular Biology 2000; vol 139: 11-26), cultures were treated with potassium borohydride to stabilise the reducible immature cross-links, and hydrolysed in 6N HCl at 100° C. for 16 hr. Total collagen content was assessed by hydroxyproline assay. Immature cross-links were assessed by LC/MS/MS and mature pyridinoline cross-links by ELISA. Cross-link data is expressed as moles of cross-link per mole collagen. […]

In assay [2] the test system is CCl4 induced liver fibrosis. In words: CCl4 induced liver fibrosis model. The format is in vivo, rat. The settings on record: rats, oral CCl4 for 6 weeks; 0.1-100 mg/Kg; compared with vehicle-treated group. The protocol:
Inhibition of CCl4 Induced Liver Fibrosis
An analysis of the use of LOXL2 inhibitors to treat inflammatory/fibrotic diseases is performed through the use of a CCl4 induced liver fibrosis model. Liver injury is frequently followed by complete parenchymal regeneration due to regenerative potency of hepatocytes. Continuous liver injury due to the administration of CCl4 leads to extracellular matrix accumulation, accompanied by recurrent hepatocyte necrosis, inflammation, and regenerative processes, causing liver fibrosis and consequently liver cirrhosis (see Natsume, M., et al., Attenuated liver fibrosis and depressed serum albumin levels in carbon tetrachloride-treated IL-6-deficient mice. J. Leukoc. Biol., 1999, 66, 601-608 also See Yao, Q. Y., et al. Inhibition by curcumin of multiple sites of the transforming growth factor-beta1 signalling pathway ameliorates the progression of liver fibrosis induced by carbon tetrachloride in rats. BMC Complement Altern Med. 2012 Sep. 16; 12(1):156.)
Rats are administered orally with CCl4 at a concentration of 0.25 μL/g in olive oil, 3 times per week for 6 weeks. Compound 25 is given 0.1-100 mg/Kg throughout the period of the experimental procedure or only 3 weeks after CCl4 administration and then throughout the entire study. […]

For assay [3], the system named is Myocardial infarction induced fibrosis. In words: Myocardial infarction induced fibrosis model. The format is in vivo, mouse. The conditions noted are these: mice, 0.1-100 mg/Kg once a day by oral gavage; FIG. 5. The text has this: Inhibition of Myocardial Infarction Induced Fibrosis
Carotic ligation is a widely accepted experimental model to induce cardiac fibrosis and to determine the anti-fibrotic activity of therapeutic agents.
In mice, the chest is opened via a left thoracotomy. The left coronary artery is identified visually using a stereo microscope, and a 7-0 suture is placed around the artery 1-2 mm below the left auricle. Permanent occlusion of the left coronary artery resulted from its ligation with the suture. Myocardial ischemia was confirmed by pallor in heart color and ST-segment elevation. (see Parajuli et al. Phosphatase PTEN is critically involved in post-myocardial infarction remodeling through the Akt/interleukin-10 signaling pathway Basic Res Cardiol (2012) 107:248).
Mice were subjected to sham or carotic ligation surgery. At 24 hrs post-surgery, echocardiography was performed on the mice. Mice were treated with compound 25 0.1-100 mg/Kg once a day for 21 (7 days after carotic ligation) or 28 days or saline as vehicle controls by oral gavage. At the end of the experiment, echocardiography was repeated to assess left ventricular function and remodeling. Then mice were euthanized for heart collection. Each heart was photographed and fixed with 10% formalin. Hearts were sectioned for Masson's trichrome stain to measure fibrosis (See FIG. 5).

Assay [4] has as its system Streptozotocin and high fat diet induced liver fibrosis. Kind of assay: Streptozotocin and high fat diet induced liver fibrosis (STAM model). Type of assay: in vivo, mouse. The conditions noted are these: STAM mice, daily oral gavage 10-30 mg/kg; FIG. 6. How it is done:
Streptozotocin and High Fat Diet Induced Liver Fibrosis
High fat/carbohydrate diet induced liver fibrosis is the most common reason for liver dysfunction and ultimately liver failure. NASH is induced in male mice by a single subcutaneous injection of 200 μg streptozotocin solution 2 days after birth and feeding with high fat diet after 4 weeks of age (STAM™ model).
LOXL2 inhibitor compound 112 was administered by daily oral gavage at doses between 10-30 mg/kg 8 weeks after streptozotocin application. Mice were sacrificed after NASH had been established and whole blood samples were taken via cardiac puncture. Liver samples were collected and washed with cold saline. Liver weight was measured. The left lateral, right and caudate lobes of livers were snap frozen in liquid nitrogen and stored at −80° C. For HE staining, sections were cut from paraffin blocks of liver tissue prefixed in Bouin's solution and stained with Lillie-Mayer's Hematoxylin and eosin solution. NAFLD Activity score (NAS) was calculated according to the criteria of Kleiner (Kleiner D E. et al., Design and validation of a histological scoring system for nonalcoholic fatty liver disease. Hepatology, 2005; 41:1313). To visualize collagen deposition, Bouin's fixed liver sections were stained using picro-Sirius red solution and the area of fibrosis was quantified (See FIG. 6).

The test system of assay [5] is Bleomycin induced lung fibrosis. Kind of assay: Bleomycin induced lung fibrosis model. The format is in vivo. The settings on record: mouse, intranasal bleomycin; 15 mg/kg. The protocol: Inhibition of Bleomycin Induced Lung Fibrosis
Bleomycin induced lung fibrosis in rodents is a widely accepted experimental model to determine the anti-fibrotic activity of therapeutic agents.
Fibrosis is induced by intranasal administered of bleomycin sulphate at a dose of 0.05 U/mouse in a total volume of 50 uL PBS (see Corbel, M., et al Inhibition of bleomycin-induced pulmonary fibrosis in mice by the matrix metalloproteinase inhibitor batimastat J Pathol. 2001 April; 193(4):538-45.) Compound 12 is given 0.1-100 mg/Kg throughout the period of the experimental procedure or 7 days after bleomycin administration and then throughout the entire study.
Formalin fixed lungs sections stained with haematoxylin and eosin are assessed for fibrosis as per the scale outlined by Ashcroft et al (Simple method of estimating severity of pulmonary fibrosis on a numerical scale J Clin Pathol 1988; 41:467-470).

For assay [6], the system named is Streptozotocin induced diabetic nephropathy. Kind of assay: Streptozotocin induced diabetic nephropathy model. Type of assay: in vivo, mouse. The settings on record: diabetic eNOS knockout mice, 24 weeks treatment, 0.1-100 mg/Kg. The text has this:
Inhibition of Streptozotocin Induced Diabetic Nephropathy
Streptozotocin (STZ)-induced diabetic nephropathy is commonly used for creating rodent models of type 1 diabetes which develop renal injury, due to pancreatic cell damage with similarities to human diabetic nephropathy.
This model can be established for investigating anti-fibrotic effects of compounds in the development of kidney fibrosis.
Diabetes is induced in eNOS knockout mice on C57BL/6 background by intraperitoneal STZ injection (55 mg/kg in 0.1 M citrate buffer) in mice of 6-9 weeks of age (see Huang C et al, Blockade of KCa3.1 ameliorates renal fibrosis through a TGF-b1/Smad pathway in diabetic mice. Diabetes, 2013 62(8):2923-2934).
Blood sugar level (BSL) is determined by tail vein blood. Mice with BSL>16 mmol/L two weeks post STZ injection are considered diabetic. Treatment with Compound 12 is carried out for 24 weeks from diagnosis of diabetes at a dose of 0.1-100 mg/Kg.

Regarding `N#CCCN` [BAPN, β-aminopropionitrile, reference compound], the “collagen cross-link formation (immature and mature cross-links)” value in assay [1] is listed as “reduced cross-link formation in a concentration dependent manner”.

For `Cc1c(-c2cccc(S(=O)(=O)N(C)C)c2)c2ncccc2n1C/C(F)=C/CN` [Compound 25, (Z)-3-(1-(4-amino-2-fluorobut-2-en-1-yl)-2-methyl-1H-pyrrolo[3,2-b]pyridin-3-yl)-N,N-dimethylbenzenesulfonamide Dihydrochloride], the “reduction of fibrosis in the liver by sirius red staining with quantification” value in assay [2] was “up to 50%”. The “fibrosis after ligation (Masson's trichrome stain)” value in assay [3] is listed as “reduce fibrosis”.

In the case of `Cc1ccc2c(n1)c(-c1cccc(S(C)(=O)=O)c1)c(C)n2C/C(F)=C/CN` [Compound 112, (Z)-4-(2,5-dimethyl-3-(3-(methylsulfonyl)phenyl)-1H-pyrrolo[3,2-b]pyridin-1-yl)-3-fluorobut-2-en-1-amine Dihydrochloride], the “collagen cross-link formation (immature and mature cross-links)” value in assay [1] was “reduced cross-link formation in a concentration dependent manner”. In assay [4], the “liver fibrosis (picro-Sirius red area of fibrosis)” value is on record as “reduce liver fibrosis”.

As to `CCOC(=O)c1ccc2c(c1)c(-c1cccc(S(=O)(=O)N(C)C)c1)c(C)n2C/C(F)=C/CN` [Compound 12, (Z)-ethyl 1-(4-amino-2-fluorobut-2-en-1-yl)-3-(3-(N,N-dimethylsulfamoyl)phenyl)-2-methyl-1H-indole-5-carboxylate], the “Ashcroft score in the lungs” value in assay [5] is “significantly reduced this score”. In addition, the “kidney function by albumin/creatinine ratio quantification” value in assay [6] is listed as “significant improvement in kidney function”. Further, the “reduction of fibrosis by Masson's Trichrome staining” value in assay [6] (compared with vehicle-treated group) is reported as “up to 50%”.
